Measured values published in article PMC8287028 (Frontiers in Veterinary Science, 2021).
Several values for one entry are separate records, joined by “and”; a condition that tells them apart may be missing. Identical values can stand only once. Like-named read-outs stand apart in the source and are kept apart here.

How the values were obtained:
healthy mixed-breed dogs = experiment: Serum biochemistry profile before and after apixaban; type: in vivo, dog; design: TP / Bicarbonate: unit not given beside the values; Calcium / Magnesium / Globulin / ALT / AST / GGT / T.bili / Sodium / BUN / Creatinine: unit not given here; conditions: for ALT / AST / Albumin / BUN / Bicarbonate / Calcium / Creatinine / GGT / Globulin / Magnesium / Sodium / T.bili / TP / Amylase / Cholesterol / Glucose / Phosphate / Potassium / TIBC: individual dogs (Dog 1-6); for Amylase: in U/L (unit assumed); for TIBC: in µg/dL (unit assumed)
Protocol: Catheters were flushed with 0.9% saline, without heparin.
Pairwise comparisons between continuous variables were conducted with Wilcoxon matched-pairs signed rank test, while comparisons of more than two groups were conducted using the Friedman test with Dunn's post-hoc adjustment. […] Comparisons of pharmacodynamic variables between baseline values and those at discrete sampling intervals were performed using the Friedman test with Dunn's post-hoc correction for multiple comparisons. […] Alpha was set at 0.05. Statistical analyses were performed using commercial software (Prism 9, GraphPad, La Jolla, CA).

[1] = molecular target: T1, bovine activated Factor X (Bos taurus, UniProt P00743); experiment: Apixaban-calibrated anti-Xa activity (aXa) chromogenic bioassay on plasma of dosed dogs; type: in vivo
T1 construct: purchased Diagnostica Stago STA Liquid anti-Xa
Protocol: Coagulation assays were performed on platelet-poor, citrated plasma samples by a reference laboratory (Comparative Coagulation Laboratory, Animal Health Diagnostic Center, Ithaca, NY). […] The assay is configured with a bovine activated Factor X reagent that is added in excess to the test plasma and a chromogenic substrate of Factor Xa (STA Liquid anti-Xa, Diagnostica Stago). Residual, uninhibited Factor Xa cleaves the chromogenic substrate such that the inverse of the color change in the reaction mixture is proportional to the drug concentration in the test plasma. […] A mechanical endpoint method (STA Compact, Diagnostica Stago) and human coagulation reagents were used to measure prothrombin time (Thromboplastin LI, Helena Diagnostics, Beaumont, TX) and activated partial thromboplastin time (Dade Actin FS, Dade Behring, Newark, DE). […] Tissue-factor (1:50,000 final dilution) activated TEG was performed using standard equipment (TEG-5000, Haemonetics, Braintree, MA) as previously reported ([35]), with assays conducted per established guidelines ([36]), with a modification to eliminate the rest time to facilitate rapid sample processing. Thromboelastography assays were conducted by experienced operators using four TEG channels and tracings terminated after maximum amplitude was established. Four values were extracted from TEG tracings: reaction time (R-time), clot formation time (K-time), clot formation angle (alpha), and maximum amplitude (MA).
Pairwise comparisons between continuous variables were conducted with Wilcoxon matched-pairs signed rank test, while comparisons of more than two groups were conducted using the Friedman test with Dunn's post-hoc adjustment. Specifically, the Wilcoxon matched-pairs signed rank tests were used to compare the complete blood count and serum chemistry values between baseline and the +24 h time point. Comparisons of pharmacodynamic variables between baseline values and those at discrete sampling intervals were performed using the Friedman test with Dunn's post-hoc correction for multiple comparisons. […] Alpha was set at 0.05. Statistical analyses were performed using commercial software (Prism 9, GraphPad, La Jolla, CA).

[2] = cats, cited from earlier work
[3] = +24h after IV apixaban, in mg/dL (unit assumed)
[4] = +30h after PO apixaban, in mg/dL (unit assumed)
[5] = +30h after PO apixaban, in mmol/L (unit assumed)

T1 sequence (P00743 234-492 limits assumed): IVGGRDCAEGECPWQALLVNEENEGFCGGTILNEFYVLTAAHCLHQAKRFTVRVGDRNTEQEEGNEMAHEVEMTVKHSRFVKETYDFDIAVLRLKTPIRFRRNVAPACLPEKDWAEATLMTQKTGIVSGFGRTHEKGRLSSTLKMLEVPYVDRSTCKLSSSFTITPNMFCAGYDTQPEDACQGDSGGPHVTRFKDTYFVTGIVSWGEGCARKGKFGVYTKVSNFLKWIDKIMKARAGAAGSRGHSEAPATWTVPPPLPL
T1 sequence (P00743 41-180 limits assumed): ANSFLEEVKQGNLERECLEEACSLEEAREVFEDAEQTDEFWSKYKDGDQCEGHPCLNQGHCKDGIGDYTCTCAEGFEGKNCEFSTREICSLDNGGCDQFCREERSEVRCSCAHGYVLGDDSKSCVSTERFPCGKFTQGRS

**Q.** With COc1ccc(-n2nc(C(N)=O)c3c2C(=O)N(c2ccc(N4CCCCC4=O)cc2)CC3)cc1 [apixaban] as the molecule, how does the ALT (healthy mixed-breed dogs; +24h after IV apixaban) read?
**A.** The ALT was 45 (2×) and 114 and 30 (2×) and 86.

**Q.** What about the AST (healthy mixed-breed dogs; +24h after IV apixaban) of the same molecule?
**A.** The AST was 34 and 44 and 21 and 32 (2×) and 31.

**Q.** What about the Albumin (healthy mixed-breed dogs; +24h after IV apixaban) of the same molecule?
**A.** Its Albumin is 3.9 and 3.4 (2×) and 3.5 and 3.7 and 3.8.

**Q.** What about the BUN (healthy mixed-breed dogs; +24h after IV apixaban) of the same molecule?
**A.** Its BUN is 16 (2×) and 19 and 30 and 20 and 21.

**Q.** And the Bicarbonate (healthy mixed-breed dogs; +24h after IV apixaban)?
**A.** Its Bicarbonate is 23 and 18 (2×) and 21 and 19 (2×).

**Q.** What about the Calcium (healthy mixed-breed dogs; +24h after IV apixaban) of the same molecule?
**A.** Its Calcium is 10.0 (2×) and 8.9 and 10.2 and 9.9 and 9.6.

**Q.** What about the Creatinine (healthy mixed-breed dogs; +24h after IV apixaban) of the same molecule?
**A.** Its Creatinine is 0.8 and 0.7 (2×) and 1 (2×) and 0.9.

**Q.** And the GGT (healthy mixed-breed dogs; +24h after IV apixaban)?
**A.** Its GGT is 2 (3×) and 3 (2×) and 6.

**Q.** And the Globulin (healthy mixed-breed dogs; +24h after IV apixaban)?
**A.** The Globulin was 2.3 and 2.1 (2×) and 2.4 and 2.0 (2×).

**Q.** And the Magnesium (healthy mixed-breed dogs; +24h after IV apixaban)?
**A.** The Magnesium was 1.8 (2×) and 1.6 and 1.7 (3×).

**Q.** What about the Sodium (healthy mixed-breed dogs; +24h after IV apixaban) of the same molecule?
**A.** The Sodium was 147 and 146 (3×) and 149 and 148.

**Q.** What about the T.bili (healthy mixed-breed dogs; +24h after IV apixaban) of the same molecule?
**A.** Its T.bili is 0.0 (4×) and 0.1 (2×).

**Q.** And the TP (healthy mixed-breed dogs; +24h after IV apixaban)?
**A.** The TP was 6.2 and 5.5 and 5.8 (2×) and 5.6 and 5.7.

**Q.** What about the Amylase (healthy mixed-breed dogs; +24h after IV apixaban) of the same molecule?
**A.** The Amylase was 467 and 362 and 561 and 514 and 451 and 707.

**Q.** And the Cholesterol (healthy mixed-breed dogs; [3])?
**A.** Its Cholesterol is 174 and 180 and 226 and 129 and 127 and 173.

**Q.** And the Glucose (healthy mixed-breed dogs; [3])?
**A.** Its Glucose is 58 and 39 and 93 and 100 and 85 and 52.

**Q.** And the Phosphate (healthy mixed-breed dogs; [3])?
**A.** The Phosphate was 3.9 and 3.7 and 3.3 and 4.4 and 3.6 and 4.1.

**Q.** And the Potassium (healthy mixed-breed dogs; +24h after IV apixaban, in mmol/L (unit assumed))?
**A.** The Potassium was 4.5 and 4.2 and 4.4 and 4.3.

**Q.** What about the TIBC (healthy mixed-breed dogs; +24h after IV apixaban) of the same molecule?
**A.** The TIBC was 391 and 352 and 385 and 345 and 313 and 356.

**Q.** What about the ALT (healthy mixed-breed dogs; +30h after PO apixaban) of the same molecule?
**A.** The ALT was 26 (2×) and 33 and 36 and 39 and 35.

**Q.** And the AST (healthy mixed-breed dogs; +30h after PO apixaban)?
**A.** Its AST is 34 and 22 and 32 (2×) and 45 and 33.

**Q.** What about the Albumin (healthy mixed-breed dogs; +30h after PO apixaban) of the same molecule?
**A.** Its Albumin is 3.9 and 3.6 (2×) and 3.4 and 3.5 (2×).

**Q.** And the BUN (healthy mixed-breed dogs; +30h after PO apixaban)?
**A.** Its BUN is 19 (2×) and 12 and 10 and 18 and 24.

**Q.** And the Calcium (healthy mixed-breed dogs; +30h after PO apixaban)?
**A.** Its Calcium is 10.2 (2×) and 9.7 (3×) and 9.8.

**Q.** And the Creatinine (healthy mixed-breed dogs; +30h after PO apixaban)?
**A.** The Creatinine was 0.9 and 0.8 (2×) and 0.6 and 0.7 and 1.

**Q.** What about the GGT (healthy mixed-breed dogs; +30h after PO apixaban) of the same molecule?
**A.** The GGT was 0 (2×) and 4 (2×) and 6 (2×).

**Q.** What about the Globulin (healthy mixed-breed dogs; +30h after PO apixaban) of the same molecule?
**A.** The Globulin was 2.1 (3×) and 2.5 and 2 and 2.3.

**Q.** And the Magnesium (healthy mixed-breed dogs; +30h after PO apixaban)?
**A.** The Magnesium was 1.7 (5×) and 1.8.

**Q.** And the Phosphate (healthy mixed-breed dogs; +30h after PO apixaban)?
**A.** The Phosphate was 2.8 and 3.9 (2×) and 3.7 (2×) and 3.8.

**Q.** And the Sodium (healthy mixed-breed dogs; +30h after PO apixaban)?
**A.** The Sodium was 147 (4×) and 150 and 146.

**Q.** What about the T.bili (healthy mixed-breed dogs; +30h after PO apixaban) of the same molecule?
**A.** The T.bili was 0.1 (4×) and 0.0 (2×).

**Q.** And the Amylase (healthy mixed-breed dogs; +30h after PO apixaban)?
**A.** The Amylase was 469 and 325 and 515 and 494 and 353 and 638.

**Q.** What about the TP (healthy mixed-breed dogs; +30h after PO apixaban, in g/dL (unit assumed)) of the same molecule?
**A.** The TP was 6 and 5.7 and 6.1 and 5.4 and 5.8 and 5.6.

**Q.** What about the Cholesterol (healthy mixed-breed dogs; [4]) of the same molecule?
**A.** The Cholesterol was 198 and 192 and 244 and 106 and 162 and 186.

**Q.** And the Glucose (healthy mixed-breed dogs; [4])?
**A.** Its Glucose is 77 and 93 and 76 and 78 and 102 and 87.

**Q.** What about the Bicarbonate (healthy mixed-breed dogs; [5]) of the same molecule?
**A.** Its Bicarbonate is 22 and 20 and 17 and 18 and 14 and 19.

**Q.** What about the Potassium (healthy mixed-breed dogs; [5]) of the same molecule?
**A.** Its Potassium is 4.3 and 4.5 and 3.9 and 4.9 and 4.6 and 4.8.

**Q.** What about the TIBC (healthy mixed-breed dogs; +30h after PO apixaban) of the same molecule?
**A.** The TIBC was 391 and 331 and 372 and 288 and 336 and 329.

**Q.** What about the “chloride and GGT, baseline versus 24 h post-injection” value (healthy mixed-breed dogs; IV) of the same molecule?
**A.** Its value is “statistically significant reductions”.

**Q.** And the biochemical parameters (healthy mixed-breed dogs; PO, baseline versus 30 h post-dose)?
**A.** The biochemical parameters was “no changes”.

**Q.** What about the “mean aXa activity following intravenous injection” value ([1]; IV 0.18 mg/kg, at mean plasma concentration […]) of the same molecule?
**A.** The value was 650 ng/mL.

**Q.** What about the “Emax (anti-Xa activity)” value ([1]; IV, mean dose 0.18 mg/kg, model E=(Emax x C)/(C+EC50)) of the same molecule?
**A.** The value was 1400.5 ng/mL.

**Q.** And the “mean aXa activity compared with human values” ([1]; PO 0.2 mg/kg)?
**A.** Its value is “remained below values typically observed for human moderate to high dose anticoagulant effect”.

**Q.** And the “aXa corresponding to the mean maximum observed plasma concentration” value ([1]; PO 0.2 mg/kg, 6 h post-dosing)?
**A.** The value was 128 ng/mL.

**Q.** And the “time of peak aXa activity” value ([1]; following oral administration 0.2 mg/kg)?
**A.** Its value is “approximately 5 h”.

**Q.** And the “time of peak aXa activity” value ([2]; following oral administration)?
**A.** Its value is 4 h.

**Q.** And the half-life ([2]; intravenously administered apixaban)?
**A.** The half-life was 1.13 h.

**Q.** What about the half-life ([2]; oral apixaban) of the same molecule?
**A.** The half-life was 3.3 h.

**Q.** And the bioavailability ([2]; oral)?
**A.** Its bioavailability is 85.5%.
